From PubChem BioAssay (NCI)
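Assay format: 96-well plates, 48-hour exposure. GI50 is the concentration that inhibits growth by half. TGI: total growth inhibition.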

What was measured:
Assay in all cases: NCI tumour cell line growth inhibition, 48 h
OVCAR-4 ovarian = system: OVCAR-4 ovarian
HCT-15 colon = system: HCT-15 colon
A549 NSCLC = system: A549 NSCLC
SN12C renal = system: SN12C renal
OVCAR-5 ovarian = system: OVCAR-5 ovarian
OVCAR-8 ovarian = system: OVCAR-8 ovarian
T-47D breast = system: T-47D breast
IGROV1 ovarian = system: IGROV1 ovarian
U251 CNS = system: U251 CNS
NCI/ADR-RES ovarian = system: NCI/ADR-RES ovarian
SF-268 CNS = system: SF-268 CNS
ACHN renal = system: ACHN renal
MCF7 breast = system: MCF7 breast
CAKI-1 renal = system: CAKI-1 renal
MOLT-4 leukemia = system: MOLT-4 leukemia
HOP-62 NSCLC = system: HOP-62 NSCLC
COLO 205 colon = system: COLO 205 colon
SR leukemia = system: SR leukemia
EKVX NSCLC = system: EKVX NSCLC
A498 renal = system: A498 renal
UACC-257 melanoma = system: UACC-257 melanoma
OVCAR-3 ovarian = system: OVCAR-3 ovarian
HCT-116 colon = system: HCT-116 colon
SK-MEL-28 melanoma = system: SK-MEL-28 melanoma
MDA-MB-231 breast = system: MDA-MB-231 breast
DU-145 prostate = system: DU-145 prostate
SK-MEL-5 melanoma = system: SK-MEL-5 melanoma
RPMI-8226 leukemia = system: RPMI-8226 leukemia
HCC-2998 colon = system: HCC-2998 colon
KM12 colon = system: KM12 colon
SW-620 colon = system: SW-620 colon
SF-539 CNS = system: SF-539 CNS
SK-OV-3 ovarian = system: SK-OV-3 ovarian
UACC-62 melanoma = system: UACC-62 melanoma
SK-MEL-2 melanoma = system: SK-MEL-2 melanoma
BT-549 breast = system: BT-549 breast
NCI-H226 lung = system: NCI-H226 lung
TK-10 renal = system: TK-10 renal
HL-60(TB) leukemia = system: HL-60(TB) leukemia
SNB-75 CNS = system: SNB-75 CNS
SNB-19 CNS = system: SNB-19 CNS
PC-3 prostate = system: PC-3 prostate
K-562 leukemia = system: K-562 leukemia
MDA-MB-435 = system: MDA-MB-435
HT29 colon = system: HT29 colon
786-0 renal = system: 786-0 renal
RXF 393 renal = system: RXF 393 renal
SF-295 CNS = system: SF-295 CNS
NCI-H522 lung = system: NCI-H522 lung
M14 melanoma = system: M14 melanoma
HS 578T breast = system: HS 578T breast
NCI-H460 lung = system: NCI-H460 lung
NCI-H23 lung = system: NCI-H23 lung
UO-31 renal = system: UO-31 renal
MALME-3M melanoma = system: MALME-3M melanoma
HOP-92 NSCLC = system: HOP-92 NSCLC

C#Cc1cc(OC)c(C(=O)Nc2ccc(F)cc2C(=O)Nc2cccc(S(=O)(=O)C(F)(F)F)c2)cn1
GI50 (OVCAR-4 ovarian): 1980 nM | TGI (OVCAR-4 ovarian): > 26600 nM | GI50 (HCT-15 colon): 629 nM | TGI (HCT-15 colon): 2680 nM | GI50 (A549 NSCLC): 1060 nM | TGI (A549 NSCLC): 5200 nM | GI50 (SN12C renal): 542 nM | TGI (SN12C renal): > 36700 nM | GI50 (OVCAR-5 ovarian): 269 nM | TGI (OVCAR-5 ovarian): 1800 nM | GI50 (OVCAR-8 ovarian): 389 nM | TGI (OVCAR-8 ovarian): 4430 nM | GI50 (T-47D breast): 1730 nM | TGI (T-47D breast): 4300 nM | GI50 (IGROV1 ovarian): 20.8 nM | TGI (IGROV1 ovarian): 51.2 nM | GI50 (U251 CNS): 280 nM | TGI (U251 CNS): 840 nM | GI50 (NCI/ADR-RES ovarian): 52.1 nM | TGI (NCI/ADR-RES ovarian): 340 nM | GI50 (SF-268 CNS): 285 nM | TGI (SF-268 CNS): 927 nM | GI50 (ACHN renal): 205 nM | TGI (ACHN renal): 1670 nM | GI50 (MCF7 breast): 727 nM | TGI (MCF7 breast): > 100000 nM | GI50 (CAKI-1 renal): 149 nM | TGI (CAKI-1 renal): 884 nM | GI50 (MOLT-4 leukemia): 322 nM | TGI (MOLT-4 leukemia): 1350 nM | GI50 (HOP-62 NSCLC): 38.1 nM | TGI (HOP-62 NSCLC): 212 nM | GI50 (COLO 205 colon): 1680 nM | TGI (COLO 205 colon): > 42700 nM | GI50 (SR leukemia): 21.6 nM | TGI (SR leukemia): 68.9 nM | GI50 (EKVX NSCLC): 290 nM | TGI (EKVX NSCLC): 1100 nM | GI50 (A498 renal): 250 nM | TGI (A498 renal): 656 nM | GI50 (UACC-257 melanoma): 3030 nM | TGI (UACC-257 melanoma): > 83600 nM | GI50 (OVCAR-3 ovarian): 224 nM | TGI (OVCAR-3 ovarian): 576 nM | GI50 (HCT-116 colon): 417 nM | TGI (HCT-116 colon): > 100000 nM | GI50 (SK-MEL-28 melanoma): 2840 nM | TGI (SK-MEL-28 melanoma): > 25800 nM | GI50 (MDA-MB-231 breast): 117 nM | TGI (MDA-MB-231 breast): 596 nM | GI50 (DU-145 prostate): 3250 nM | TGI (DU-145 prostate): > 100000 nM | GI50 (SK-MEL-5 melanoma): 1240 nM | TGI (SK-MEL-5 melanoma): 2880 nM | GI50 (RPMI-8226 leukemia): 174 nM | TGI (RPMI-8226 leukemia): 550 nM | GI50 (HCC-2998 colon): 2100 nM | TGI (HCC-2998 colon): 4640 nM | GI50 (KM12 colon): 299 nM | TGI (KM12 colon): 1540 nM | GI50 (SW-620 colon): 1130 nM | TGI (SW-620 colon): 3420 nM | GI50 (SF-539 CNS): 99.9 nM | TGI (SF-539 CNS): 252 nM | GI50 (SK-OV-3 ovarian): 205 nM | TGI (SK-OV-3 ovarian): 412 nM | GI50 (UACC-62 melanoma): 778 nM | TGI (UACC-62 melanoma): 2310 nM | GI50 (SK-MEL-2 melanoma): 2870 nM | TGI (SK-MEL-2 melanoma): 10600 nM | GI50 (BT-549 breast): 500 nM | TGI (BT-549 breast): 1850 nM | GI50 (NCI-H226 lung): 1720 nM | TGI (NCI-H226 lung): 8900 nM | GI50 (TK-10 renal): 5860 nM | TGI (TK-10 renal): > 100000 nM | GI50 (HL-60(TB) leukemia): 28.9 nM | TGI (HL-60(TB) leukemia): 84.5 nM | GI50 (SNB-75 CNS): 190 nM | TGI (SNB-75 CNS): 529 nM | GI50 (SNB-19 CNS): 1590 nM | TGI (SNB-19 CNS): 3550 nM | GI50 (PC-3 prostate): 1520 nM | TGI (PC-3 prostate): 14500 nM | GI50 (K-562 leukemia): 666 nM | TGI (K-562 leukemia): > 100000 nM | GI50 (MDA-MB-435): 1750 nM | TGI (MDA-MB-435): > 23800 nM | GI50 (HT29 colon): 447 nM | TGI (HT29 colon): 2500 nM | GI50 (786-0 renal): 24.1 nM | TGI (786-0 renal): 63.3 nM | GI50 (RXF 393 renal): 337 nM | TGI (RXF 393 renal): 1190 nM | GI50 (SF-295 CNS): 176 nM | TGI (SF-295 CNS): 333 nM | GI50 (NCI-H522 lung): 60.6 nM | TGI (NCI-H522 lung): 237 nM | GI50 (M14 melanoma): 1270 nM | TGI (M14 melanoma): > 28400 nM | GI50 (HS 578T breast): 525 nM | TGI (HS 578T breast): 3140 nM | GI50 (NCI-H460 lung): 419 nM | TGI (NCI-H460 lung): 1690 nM | GI50 (NCI-H23 lung): 101 nM | TGI (NCI-H23 lung): 559 nM | GI50 (UO-31 renal): 17.5 nM | TGI (UO-31 renal): 44.9 nM | GI50 (MALME-3M melanoma): 43.3 nM | TGI (MALME-3M melanoma): 130 nM | GI50 (HOP-92 NSCLC): 20.1 nM | TGI (HOP-92 NSCLC): 53.9 nM
